Data reported in patent publication EP3046573B1, “AMYLIN ANALOGUES” (Zealand Pharma A/S, priority 2013, dated 2015).
Read-outs that look alike come from different tables or passages of the source. Numbered stars: 1 amine (or outer) side, 2 acyl side, 3 side chain; on linkers, the order of the positions; unused ones are H or OH. Bridge positions count the residues as written; N and C are the ends. Square brackets hold non-standard residues; d marks the D form. Peptide text beside a SMILES is read from it. * marks the point of attachment. C20 diacid = O=C(O)CCCCCCCCCCCCCCCCCCC(=O)*; Pro(4R-NH2) = N[C@H]1CN[C@H](C(=O)O)C1; γGlu = O=C(O)[C@H](CCC(=O)[*:2])N[*:1]; NMeI = CC[C@H](C)[C@H](NC)C(=O)O; Aze = O=C(O)[C@@H]1CCN1; Sar = CNCC(=O)O

Assays:
Sprague Dawley (SD) rats = experiment: Acute food intake and body weight in normal Sprague Dawley rats; assay type: in vivo; settings: vehicle-corrected, dose 30 nmol/kg sc, once; for Body weight loss (%) after 96 hours: mean ± SEM, n = 8
Outline: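 Normal male-unspecified SD rats, n = 8 per group, given a single s.c. peptide dose of 30 nmol/kg just before dark phase, with vehicle and positive control groups. Food intake recorded at 0, 4, 7, 10, 24, 48, 72 and 96 h; body weight daily; means ± SEM.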

[1] = molecular target: T1, human calcitonin receptor (hCTR2) (Homo sapiens, UniProt P30988); experiment: hCTR2 assay: induction of cAMP (AlphaScreen cAMP Assay kit) in COS7 cells expressing hCTR2; assay type: cell-based
T1 construct: expressed in transfected cells
T1 sequence (P30988 25-474): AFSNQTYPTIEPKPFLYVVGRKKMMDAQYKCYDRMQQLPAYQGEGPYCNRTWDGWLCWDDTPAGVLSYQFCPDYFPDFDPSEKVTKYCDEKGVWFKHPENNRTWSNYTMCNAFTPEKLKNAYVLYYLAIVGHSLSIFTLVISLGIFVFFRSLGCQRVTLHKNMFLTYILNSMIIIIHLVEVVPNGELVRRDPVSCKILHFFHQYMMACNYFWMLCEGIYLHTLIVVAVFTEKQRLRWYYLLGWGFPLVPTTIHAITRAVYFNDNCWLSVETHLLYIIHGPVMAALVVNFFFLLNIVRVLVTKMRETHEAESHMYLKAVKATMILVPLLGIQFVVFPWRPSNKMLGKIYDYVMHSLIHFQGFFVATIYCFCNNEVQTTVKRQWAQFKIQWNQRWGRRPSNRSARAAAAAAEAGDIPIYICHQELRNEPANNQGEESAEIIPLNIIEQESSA
Outline: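 Stable hCTR2 clone in RAMP-naive COS7 cells; peptides titrated in Tyrode buffer (pH 7.4) with 100 µM IBMX, 0.1% casein, 15 min at 37° C. cAMP read by AlphaScreen after lysis; EC50 and efficacy relative to pramlintide from 4PL fit.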

[2] = Solubility assessment (turbidity absorbance at 325 nm); assay type: physicochemical; settings: stock 2 mg/ml diluted 1:1, ambient temperature (typically 25°C), n=1; for Solubility, Acetate buffer pH 4: 100 mM acetate buffer pH 4.0; for Solubility, Acetate buffer pH 5: 100 mM acetate buffer pH 5.0; for Solubility, Histidine buffer pH 6: 100 mM histidine buffer pH 6.0; for Solubility, Histidine buffer pH 7: 100 mM histidine buffer pH 7.0; for Solubility, Phosphate buffer pH 6: 100 mM phosphate buffer pH 6.0; for Solubility, Phosphate buffer pH 7: 100 mM phosphate buffer pH 7.0; for Solubility, Phosphate buffer pH 7.5: 100 mM phosphate buffer pH7.5
Outline: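 Peptide stock (2 mg/ml, water pH 2.5) diluted 1:1 into 100 mM acetate (pH 4.0, 5.0), histidine (pH 6.0, 7.0) or phosphate (pH 6.0–7.5) buffer; absorbance at 325 nm read at about 25°C, n=1. A325 ≤ 0.02 taken as solubility ≥ 1 mg/ml.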

[3] = cAMP induction in COS7 cells expressing hCTR2, average of a minimum of 3 determinations, read-out: hCTR2 EC50

Compound	Food intake inhibition (%) after 48 hours (Sprague Dawley (SD) rats) [%]	Body weight loss (%) after 96 hours (Sprague Dawley (SD) rats) [%]	EC50 [1] [nM]	Solubility, Acetate buffer pH 4 [2]	Solubility, Acetate buffer pH 5 [2]	Solubility, Histidine buffer pH 6 [2]	Solubility, Histidine buffer pH 7 [2]	Solubility, Phosphate buffer pH 6 [2]	Solubility, Phosphate buffer pH 7 [2]	Solubility, Phosphate buffer pH 7.5 [2]	EC50 [1, 3] [nM]
CC[C@H](C)[C@@H](C(=O)N[C@@H](CC(C)C)C(=O)N[C@@H](CO)C(=O)N[C@@H](CO)C(=O)N[C@H](C(=O)N[C@@H](CC(N)=O)C(=O)N[C@H](C(=O)NCC(=O)N[C@@H](CO)C(=O)N[C@@H](CC(N)=O)C(=O)N[C@H](C(=O)N1CC[C@H]1C(N)=O)[C@@H](C)O)C(C)C)[C@@H](C)O)N(C)C(=O)[C@H](C)NC(=O)CN(C)C(=O)[C@H](Cc1ccccc1)NC(=O)[C@H](CC(N)=O)NC(=O)[C@H](CC(N)=O)NC(=O)[C@H](CO)NC(=O)[C@H](CO)NC(=O)[C@H](CCCNC(=N)N)NC(=O)[C@H](Cc1c[nH]cn1)NC(=O)[C@H](CC(C)C)NC(=O)[C@H](Cc1ccccc1)NC(=O)[C@H](CCC(=O)O)NC(=O)[C@H](C)NC(=O)[C@H](CC(C)C)NC(=O)[C@H](CCCNC(=N)N)NC(=O)[C@H](CCC(N)=O)NC(=O)[C@@H](NC(=O)[C@H](C)NC(=O)[C@@H]1CSSC[C@H](NC(=O)[C@H](CCCNC(=N)N)NC(=O)CC[C@H](NC(=O)CCCCCCCCCCCCCCCCCCC(=O)O)C(=O)O)C(=O)N[C@@H](CC(N)=O)C(=O)N[C@@H]([C@@H](C)O)C(=O)N[C@@H](C)C(=O)N[C@@H]([C@@H](C)O)C(=O)N1)[C@@H](C)O [Compound 107, [19CD]-isoGlu-RC()NTATC()ATQRLAEFLHRSSNNF-Gly(Me)-A-Ile(Me)-LSSTNVGSNT-Aze-NH2] ({C20 diacid-γGlu}-RCNTATCATQRLAEFLHRSSNNF[Sar]A[NMeI]LSSTNVGSNT[Aze]-NH2; disulfide 2-7)	83	6 ± 1.5	0.18	SS (SS indicates solubility ≥ 1mg/ml)	SS (SS indicates solubility ≥ 1mg/ml)	SS (SS indicates solubility ≥ 1mg/ml)	SS (SS indicates solubility ≥ 1mg/ml)	SS (SS indicates solubility ≥ 1mg/ml)	SS (SS indicates solubility ≥ 1mg/ml)	SS (SS indicates solubility ≥ 1mg/ml)	–
CC[C@H](C)[C@@H](C(=O)N[C@@H](CC(C)C)C(=O)N[C@@H](CO)C(=O)N[C@@H](CO)C(=O)N[C@H](C(=O)N[C@@H](CC(N)=O)C(=O)N[C@H](C(=O)NCC(=O)N[C@@H](CO)C(=O)N[C@@H](CC(N)=O)C(=O)N[C@H](C(=O)N1C[C@H](N)C[C@H]1C(N)=O)[C@@H](C)O)C(C)C)[C@@H](C)O)N(C)C(=O)[C@H](C)NC(=O)CN(C)C(=O)[C@H](Cc1ccccc1)NC(=O)[C@H](CC(N)=O)NC(=O)[C@H](CC(N)=O)NC(=O)[C@H](CO)NC(=O)[C@H](CO)NC(=O)[C@H](CCCNC(=N)N)NC(=O)[C@H](Cc1c[nH]cn1)NC(=O)[C@H](CC(C)C)NC(=O)[C@H](Cc1ccccc1)NC(=O)[C@H](CCC(=O)O)NC(=O)[C@H](C)NC(=O)[C@H](CC(C)C)NC(=O)[C@H](CCCNC(=N)N)NC(=O)[C@H](CCC(N)=O)NC(=O)[C@@H](NC(=O)[C@H](C)NC(=O)[C@@H]1CSSC[C@H](NC(=O)[C@H](CCCNC(=N)N)NC(=O)CC[C@H](NC(=O)CCCCCCCCCCCCCCCCCCC(=O)O)C(=O)O)C(=O)N[C@@H](CC(N)=O)C(=O)N[C@@H]([C@@H](C)O)C(=O)N[C@@H](C)C(=O)N[C@@H]([C@@H](C)O)C(=O)N1)[C@@H](C)O [Compound 110, [19CD]-isoGlu-RC()NTATC()ATQRLAEFLHRSSNNF-Gly(Me)-A-Ile(Me)-LSSTNVGSNT-Apr-NH2] ({C20 diacid-γGlu}-RCNTATCATQRLAEFLHRSSNNF[Sar]A[NMeI]LSSTNVGSNT[Pro(4R-NH2)]-NH2; disulfide 2-7)	98	11 ± 1.1	0.16	SS (SS indicates solubility ≥ 1mg/ml)	SS (SS indicates solubility ≥ 1mg/ml)	SS (SS indicates solubility ≥ 1mg/ml)	SS (SS indicates solubility ≥ 1mg/ml)	II (II indicates solubility ≤ 1 mg/ml)	SS (SS indicates solubility ≥ 1mg/ml)	SS (SS indicates solubility ≥ 1mg/ml)	–
CC[C@H](C)[C@@H](C(=O)N[C@@H](CC(C)C)C(=O)N[C@@H](CO)C(=O)N[C@@H](CO)C(=O)N[C@H](C(=O)N[C@@H](CCC(=O)O)C(=O)N[C@H](C(=O)NCC(=O)N[C@@H](CO)C(=O)N[C@@H](CCC(=O)O)C(=O)N[C@H](C(=O)N1CCC[C@H]1C(N)=O)[C@@H](C)O)C(C)C)[C@@H](C)O)N(C)C(=O)[C@H](C)NC(=O)CN(C)C(=O)[C@H](Cc1ccccc1)NC(=O)[C@H](CO)NC(=O)[C@H](CO)NC(=O)[C@H](CO)NC(=O)[C@H](CO)NC(=O)[C@H](CCCNC(=N)N)NC(=O)[C@H](Cc1c[nH]cn1)NC(=O)[C@H](CC(C)C)NC(=O)[C@H](Cc1ccccc1)NC(=O)[C@H](CCC(=O)O)NC(=O)[C@H](C)NC(=O)[C@H](CC(C)C)NC(=O)[C@H](CCCNC(=N)N)NC(=O)[C@H](CC(=O)O)NC(=O)[C@@H](NC(=O)[C@H](C)NC(=O)[C@@H]1CSSC[C@H](NC(=O)[C@H](CCCNC(=N)N)NC(=O)CC[C@H](NC(=O)CCCCCCCCCCCCCCCCCCC(=O)O)C(=O)O)C(=O)N[C@@H](CC(N)=O)C(=O)N[C@@H]([C@@H](C)O)C(=O)N[C@@H](C)C(=O)N[C@@H]([C@@H](C)O)C(=O)N1)[C@@H](C)O [Compound 120, [19CD]-isoGlu-RC()NTATC()ATDRLAEFLHRSSSSF-Gly(Me)-A-Ile(Me)-LSSTEVGSETP-NH2] ({C20 diacid-γGlu}-RCNTATCATDRLAEFLHRSSSSF[Sar]A[NMeI]LSSTEVGSETP-NH2; disulfide 2-7)	–	12 ± 1.8	–	SS (SS indicates solubility ≥ 1mg/ml)	SS (SS indicates solubility ≥ 1mg/ml)	SS (SS indicates solubility ≥ 1mg/ml)	SS (SS indicates solubility ≥ 1mg/ml)	SS (SS indicates solubility ≥ 1mg/ml)	SS (SS indicates solubility ≥ 1mg/ml)	SS (SS indicates solubility ≥ 1mg/ml)	0.043
CC[C@H](C)[C@@H](C(=O)N[C@@H](CC(C)C)C(=O)N[C@@H](CO)C(=O)N[C@@H](CO)C(=O)N[C@H](C(=O)N[C@@H](CCC(=O)O)C(=O)N[C@H](C(=O)NCC(=O)N[C@@H](CO)C(=O)N[C@@H](CCC(=O)O)C(=O)N[C@H](C(=O)N1CCC[C@H]1C(N)=O)[C@@H](C)O)C(C)C)[C@@H](C)O)N(C)C(=O)[C@H](C)NC(=O)CN(C)C(=O)[C@H](Cc1ccccc1)NC(=O)[C@H](CO)NC(=O)[C@H](CO)NC(=O)[C@H](CO)NC(=O)[C@H](CO)NC(=O)[C@H](CCCNC(=N)N)NC(=O)[C@H](Cc1c[nH]cn1)NC(=O)[C@H](CC(C)C)NC(=O)[C@H](Cc1ccccc1)NC(=O)[C@H](CCC(=O)O)NC(=O)[C@H](C)NC(=O)[C@H](CC(C)C)NC(=O)[C@H](CCCNC(=N)N)NC(=O)[C@H](CCC(=O)O)NC(=O)[C@@H](NC(=O)[C@H](C)NC(=O)[C@@H]1CSSC[C@H](NC(=O)[C@H](CCCNC(=N)N)NC(=O)CC[C@H](NC(=O)CCCCCCCCCCCCCCCCCCC(=O)O)C(=O)O)C(=O)N[C@@H](CCC(=O)O)C(=O)N[C@@H]([C@@H](C)O)C(=O)N[C@@H](C)C(=O)N[C@@H]([C@@H](C)O)C(=O)N1)[C@@H](C)O [Compound 134, [19CD]-isoGlu-RC()ETATC()ATERLAEFLHRSSSSF-Gly(Me)-A-Ile(Me)-LSSTEVGSETP-NH2] ({C20 diacid-γGlu}-RCETATCATERLAEFLHRSSSSF[Sar]A[NMeI]LSSTEVGSETP-NH2; disulfide 2-7)	27	4 ± 3.1	–	SS (SS indicates solubility ≥ 1mg/ml)	SS (SS indicates solubility ≥ 1mg/ml)	SS (SS indicates solubility ≥ 1mg/ml)	SS (SS indicates solubility ≥ 1mg/ml)	SS (SS indicates solubility ≥ 1mg/ml)	SS (SS indicates solubility ≥ 1mg/ml)	SS (SS indicates solubility ≥ 1mg/ml)	0.22
